Measurements: patent US12606561B2, “Substituted pyrazolo[1,5-a][1,3,5]triazines as CDK inhibitors” (QURIENT CO., LTD., priority 2018, dated 2026)

Key:
MV4-11 = test: Cellular MV4-11 viability assay (CellTiter-Glo, 72 hours); assay type: cell-based; settings: Homo sapiens; MV4-11 cells
Method: Human […] cell line, MV4-11_(ATCC, Cat #CRL-9591), NSCLC (Non-small cell lung cancer) cell line H460 (ATCC, Cat #HTB-177), A2780 (ECACC, Cat #93112519) and OVCAR-3(ATCC, Cat #HTB-161) were obtained from ATCC. Cells were grown in RPMI-1640 media (Invitrogen, Cat #22400-089) supplemented with 10% FBS (Invitrogen, Cat #10099141) and 1% penicillin/streptomycin (Invitrogen, Cat #15070063) and cultured at 37° C., 5% CO2 in a humidified chamber. All cell lines were routinely tested for mycoplasma.
To effect of the CDK7 inhibitor to inhibit the growth of target cancer cells, viability assay were conducted a 72 hour time period. Briefly, the candidate cell line was plated in 96 well plate at the following density of cells respectively. 1×10^4 cells/well for MV4-11, 5×10^3 for H460 and OVCAR-3, and 1×10^3 for A2780. After 24 hours, the cells were treated with various concentrations of the compound (ranging from 0.0015 uM to 10 uM). DMSO solvent without compound served as a control and final DMSO concentration lest than 0.1%. After 72 hours of incubation at 37° C., 5% CO2 incubator, cells were analyzed for the viability using the CellTiter-Glo Luminescent Cell Viability Assay (Promega, Cat #G7570). All viability assays were performed in duplicate and Luminescence was read using an Envision (Perkin Elmer, USA). Data was analyzed using XLfit software.

CDK7/Cyclin H/MNAT1 = molecular target: T1, CDK7/Cyclin H/MNAT1 (Homo sapiens, UniProt P50613); test: Enzymatic assay for CDK7 (LANCE Ultra kinase assay, FRET based); assay type: biochemical; settings: for IC50: ATP at Km
T1 construct: purchased Invitrogen PR6749B
T1 sequence (P50613 whole entry): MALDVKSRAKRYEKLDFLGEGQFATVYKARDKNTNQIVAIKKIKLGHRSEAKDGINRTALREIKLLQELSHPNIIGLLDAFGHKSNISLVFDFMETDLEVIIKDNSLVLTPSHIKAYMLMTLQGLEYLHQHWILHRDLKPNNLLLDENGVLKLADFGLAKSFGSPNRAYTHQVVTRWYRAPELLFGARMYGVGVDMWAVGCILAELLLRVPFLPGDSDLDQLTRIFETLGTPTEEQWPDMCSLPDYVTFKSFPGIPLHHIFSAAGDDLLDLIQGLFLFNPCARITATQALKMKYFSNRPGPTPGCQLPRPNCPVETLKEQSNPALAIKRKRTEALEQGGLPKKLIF
T1 sequence (P51946 whole entry partner): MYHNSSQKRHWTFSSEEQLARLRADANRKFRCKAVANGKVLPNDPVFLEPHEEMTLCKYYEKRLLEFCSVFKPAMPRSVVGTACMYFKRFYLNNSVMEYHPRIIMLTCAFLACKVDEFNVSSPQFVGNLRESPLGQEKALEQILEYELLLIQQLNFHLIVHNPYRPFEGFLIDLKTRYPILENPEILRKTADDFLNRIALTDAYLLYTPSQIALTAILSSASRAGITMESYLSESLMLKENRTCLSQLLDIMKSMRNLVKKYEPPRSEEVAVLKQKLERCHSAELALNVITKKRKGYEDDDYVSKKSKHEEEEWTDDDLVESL
T1 sequence (P51948 whole entry partner): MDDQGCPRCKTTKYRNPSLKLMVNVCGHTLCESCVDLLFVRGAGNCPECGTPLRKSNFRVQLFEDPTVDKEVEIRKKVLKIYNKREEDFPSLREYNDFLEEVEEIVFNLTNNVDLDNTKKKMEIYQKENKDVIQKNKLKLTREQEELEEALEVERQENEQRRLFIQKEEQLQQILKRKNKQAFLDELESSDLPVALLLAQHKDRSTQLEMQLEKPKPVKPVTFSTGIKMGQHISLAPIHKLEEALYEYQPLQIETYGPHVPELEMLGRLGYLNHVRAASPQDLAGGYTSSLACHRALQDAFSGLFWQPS
In short: (§1)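 Purified CDK–cyclin enzyme, ATP at Km; ULight peptide substrate; TR-FRET via Eu anti-phospho-Ab; inhibition scored.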

A2780 = A2780 viability assay (CellTiter-Glo, 72 hours); assay type: cell-based; settings: Homo sapiens; A2780 cells
In short: (§2)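 RPMI-1640/10% FBS; plate cells (MV4-11 1×10^4, OVCAR-3 5×10^3, A2780 1×10^3 per well); 24 h later add compound 0.0015–10 uM; 72 h, 37° C; CellTiter-Glo luminescence, duplicate wells.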

CDK1/Cyclin B = molecular target: T2, CDK1/Cyclin B (Homo sapiens, UniProt P06493); test: Enzymatic assay for CDK1 (LANCE Ultra kinase assay, FRET based); assay type: biochemical; settings: ATP at Km; read-out: CDK1 enzymatic activity IC50
T2 construct: purchased Invitrogen PR4768C
T2 sequence (P06493 whole entry): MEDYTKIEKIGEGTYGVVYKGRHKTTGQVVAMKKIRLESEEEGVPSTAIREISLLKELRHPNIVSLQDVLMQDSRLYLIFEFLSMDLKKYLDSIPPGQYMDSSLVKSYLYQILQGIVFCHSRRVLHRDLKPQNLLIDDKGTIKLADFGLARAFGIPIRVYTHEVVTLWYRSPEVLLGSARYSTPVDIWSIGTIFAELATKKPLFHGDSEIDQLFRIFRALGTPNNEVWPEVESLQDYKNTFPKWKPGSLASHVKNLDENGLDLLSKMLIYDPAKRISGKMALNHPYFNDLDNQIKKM
T2 sequence (P14635 whole entry partner): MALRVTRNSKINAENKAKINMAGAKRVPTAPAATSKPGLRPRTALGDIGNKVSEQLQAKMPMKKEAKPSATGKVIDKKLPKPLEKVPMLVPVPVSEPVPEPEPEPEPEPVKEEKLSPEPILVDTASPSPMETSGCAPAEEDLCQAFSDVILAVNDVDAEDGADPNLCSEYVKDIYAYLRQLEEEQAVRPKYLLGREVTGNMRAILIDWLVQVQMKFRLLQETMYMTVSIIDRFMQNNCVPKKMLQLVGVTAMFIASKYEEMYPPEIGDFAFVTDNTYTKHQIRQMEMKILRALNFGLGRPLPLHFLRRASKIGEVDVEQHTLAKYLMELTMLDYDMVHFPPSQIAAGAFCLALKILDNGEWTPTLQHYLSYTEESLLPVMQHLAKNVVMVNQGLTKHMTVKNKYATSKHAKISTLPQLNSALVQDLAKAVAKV
In short: as §1

CDK5/p25 = molecular target: T3, CDK5/p25 (Homo sapiens, UniProt Q00535); test: Enzymatic assay for CDK5 (LANCE Ultra kinase assay, FRET based); assay type: biochemical; settings: ATP at Km
T3 construct: purchased Invitrogen PR8543B
T3 sequence (Q00535 whole entry): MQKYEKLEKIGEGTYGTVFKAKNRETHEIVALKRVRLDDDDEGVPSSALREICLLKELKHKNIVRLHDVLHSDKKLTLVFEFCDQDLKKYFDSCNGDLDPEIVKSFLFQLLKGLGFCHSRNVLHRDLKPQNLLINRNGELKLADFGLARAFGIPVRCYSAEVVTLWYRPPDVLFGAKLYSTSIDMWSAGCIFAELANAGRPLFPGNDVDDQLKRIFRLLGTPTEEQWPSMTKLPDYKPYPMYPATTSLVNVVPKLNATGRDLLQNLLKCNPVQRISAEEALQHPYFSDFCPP
T3 sequence (Q15078 99-307 partner limits assumed): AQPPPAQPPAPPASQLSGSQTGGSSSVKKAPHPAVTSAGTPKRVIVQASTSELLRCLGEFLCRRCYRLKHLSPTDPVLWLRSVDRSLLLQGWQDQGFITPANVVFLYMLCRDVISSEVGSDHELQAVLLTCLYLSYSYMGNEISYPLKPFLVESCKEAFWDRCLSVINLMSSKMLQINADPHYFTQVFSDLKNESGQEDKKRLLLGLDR
In short: (§3)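 Inhibition was measured at ATP Km with 68 nM ULight-MBP peptide and CDK2/Cyclin A ([…]) or CDK5/p25 ([…]), using 8-dose 4-fold compound dilutions from DMSO. Kinase reaction ran 60 min at 23° C, then Eu anti-phospho-MBP plus EDTA were added for another 60 min before the fluorescence read.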

CDK2/Cyclin A = molecular target: T4, CDK2/Cyclin A (Homo sapiens, UniProt P24941); test: Enzymatic assay for CDK2 (LANCE Ultra kinase assay, FRET based); assay type: biochemical; settings: ATP at Km
T4 construct: purchased Invitrogen PV6290
In short: as §3

OVCAR-3 = OVCAR-3 viability assay (CellTiter-Glo, 72 hours); assay type: cell-based; settings: Homo sapiens; OVCAR-3 cells
In short: as §2

Row | Structure (SMILES) | IC50 (MV4-11) | IC50 (CDK7/Cyclin H/MNAT1) | CDK1/CDK7: Selectivity of CDK7 inhibition over CDK1 inhibition (CDK7/Cyclin H/MNAT1) | CDK2/CDK7: Selectivity of CDK7 inhibition over CDK2 inhibition (CDK7/Cyclin H/MNAT1) | CDK5/CDK7: Selectivity of CDK7 inhibition over CDK5 inhibition (CDK7/Cyclin H/MNAT1) | IC50 (A2780) | IC50 (CDK1/Cyclin B) | IC50 (CDK5/p25) | IC50 (CDK2/Cyclin A) | IC50 (OVCAR-3)
1 | CC(C)c1cnn2c(NCc3ccccc3-c3nccc4cc(NC(=O)/C=C/CN(C)C)ccc34)nc(N[C@H]3CC[C@H](O)C3)nc12 [Compound 32] | < 1 µM | < 0.1 µM | A (A indicates [fold] > 500) | A (A indicates [fold] > 500) | A (A indicates [fold] > 500) | < 1 µM | > 1 µM | > 1 µM | > 1 µM | < 1 µM
2 | CC(C)c1cnn2c(NCc3ccccc3-c3nccc4cc(NC(=O)/C=C/CN(C)C)ccc34)nc(NCCC3CNCCO3)nc12 (racemic) [Compound 51] | < 1 µM | < 0.1 µM | A (A indicates [fold] > 500) | A (A indicates [fold] > 500) | A (A indicates [fold] > 500) | < 1 µM | > 1 µM | > 1 µM | > 1 µM | < 1 µM
3 | CC(C)c1cnn2c(NCc3ccccc3-c3nccc4cc(NC(=O)/C=C/CN(C)C)ccc34)nc(NCC3CCNCC3)nc12 [Compound 45] | < 1 µM | < 0.1 µM | A (A indicates [fold] > 500) | A (A indicates [fold] > 500) | A (A indicates [fold] > 500) | < 1 µM | > 1 µM | > 1 µM | > 1 µM | < 1 µM
4 | CC(C)c1cnn2c(NCc3ccccc3-c3nccc4cc(NC(=O)/C=C/CN(C)C)ccc34)nc(N3CCNCC3)nc12 [Compound 59] | < 1 µM | < 0.1 µM | A (A indicates [fold] > 500) | A (A indicates [fold] > 500) | A (A indicates [fold] > 500) | < 1 µM | > 1 µM | > 1 µM | > 1 µM | < 1 µM
5 | CC(C)c1cnn2c(NCc3ccccc3-c3nccc4cc(NC(=O)/C=C/CN(C)C)ccc34)nc(N3CCC(O)C3)nc12 (racemic) [Compound 37] | < 1 µM | 0.1 to 1 µM | B (B indicates 50 < [fold] ≤ 500) | B (B indicates 50 < [fold] ≤ 500) | B (B indicates 50 < [fold] ≤ 500) | < 1 µM | > 1 µM | > 1 µM | > 1 µM | < 1 µM
6 | CC(C)c1cnn2c(NCc3ccccc3-c3nccc4cc(NC(=O)/C=C/CN(C)C)ccc34)nc(N3CCC(O)CC3)nc12 [Compound 31] | < 1 µM | < 0.1 µM | A (A indicates [fold] > 500) | A (A indicates [fold] > 500) | A (A indicates [fold] > 500) | < 1 µM | > 1 µM | > 1 µM | > 1 µM | < 1 µM
7 | C/C=C/C(=O)Nc1ccc2c(-c3ccccc3CNc3nc(NC[C@H]4CCNC[C@@H]4O)nc4c(C(C)C)cnn34)nccc2c1 [Compound 68] | < 1 µM | < 0.1 µM | A (A indicates [fold] > 500) | A (A indicates [fold] > 500) | A (A indicates [fold] > 500) | < 1 µM | > 1 µM | > 1 µM | > 1 µM | < 1 µM
8 | CC(C)c1cnn2c(NCc3ccccc3-c3nccc4cc(NC(=O)/C=C/CN(C)CC(N)=O)ccc34)nc(N3CCC(N)CC3)nc12 [Compound 58] | < 1 µM | < 0.1 µM | A (A indicates [fold] > 500) | A (A indicates [fold] > 500) | A (A indicates [fold] > 500) | 1 to 10 µM | > 1 µM | > 1 µM | > 1 µM | 1 to 10 µM
9 | CC(C)c1cnn2c(NCc3ccccc3-c3nccc4cc(NC(=O)/C=C/CN(C)C)ccc34)nc(-n3ccc(CO)n3)nc12 [Compound 41] | < 1 µM | < 0.1 µM | B (B indicates 50 < [fold] ≤ 500) | B (B indicates 50 < [fold] ≤ 500) | B (B indicates 50 < [fold] ≤ 500) | < 1 µM | > 1 µM | > 1 µM | > 1 µM | < 1 µM
10 | C/C=C/C(=O)Nc1ccc2c(-c3ccccc3CNc3nc(NC[C@H]4CNC[C@@H]4O)nc4c(C(C)C)cnn34)nccc2c1 [Compound 77] | < 1 µM | < 0.1 µM | A (A indicates [fold] > 500) | A (A indicates [fold] > 500) | A (A indicates [fold] > 500) | 1 to 10 µM | > 1 µM | > 1 µM | > 1 µM | 1 to 10 µM
11 | CC(C)c1cnn2c(NCc3ccccc3-c3nccc4cc(NC(=O)/C=C/CN(C)C)ccc34)nc(NC3CCC(O)CC3)nc12 (centres unmarked) [Compound 36] | < 1 µM | < 0.1 µM | A (A indicates [fold] > 500) | A (A indicates [fold] > 500) | A (A indicates [fold] > 500) | < 1 µM | > 1 µM | > 1 µM | > 1 µM | < 1 µM
